Results on 41 molecules are retold here after ChEMBL document CHEMBL4130350, “Discovery, mechanism and metabolism studies of 2,3-difluorophenyl-linker-containing PARP1 inhibitors with enhanced in vivo efficacy for cancer therapy” (Eur J Med Chem, 2017).

Each structure is given as a SMILES string.

The target of data set [1] is Poly [ADP-ribose] polymerase 1 (Homo sapiens, UniProt P09874). Kind of data set: Inhibition of PARP1 (unknown origin) by ELISA. A general note: In an ELISA, binding on a coated surface is turned into a signal by an enzyme label.
Poly [ADP-ribose] polymerase 1, sequence (P09874 whole entry): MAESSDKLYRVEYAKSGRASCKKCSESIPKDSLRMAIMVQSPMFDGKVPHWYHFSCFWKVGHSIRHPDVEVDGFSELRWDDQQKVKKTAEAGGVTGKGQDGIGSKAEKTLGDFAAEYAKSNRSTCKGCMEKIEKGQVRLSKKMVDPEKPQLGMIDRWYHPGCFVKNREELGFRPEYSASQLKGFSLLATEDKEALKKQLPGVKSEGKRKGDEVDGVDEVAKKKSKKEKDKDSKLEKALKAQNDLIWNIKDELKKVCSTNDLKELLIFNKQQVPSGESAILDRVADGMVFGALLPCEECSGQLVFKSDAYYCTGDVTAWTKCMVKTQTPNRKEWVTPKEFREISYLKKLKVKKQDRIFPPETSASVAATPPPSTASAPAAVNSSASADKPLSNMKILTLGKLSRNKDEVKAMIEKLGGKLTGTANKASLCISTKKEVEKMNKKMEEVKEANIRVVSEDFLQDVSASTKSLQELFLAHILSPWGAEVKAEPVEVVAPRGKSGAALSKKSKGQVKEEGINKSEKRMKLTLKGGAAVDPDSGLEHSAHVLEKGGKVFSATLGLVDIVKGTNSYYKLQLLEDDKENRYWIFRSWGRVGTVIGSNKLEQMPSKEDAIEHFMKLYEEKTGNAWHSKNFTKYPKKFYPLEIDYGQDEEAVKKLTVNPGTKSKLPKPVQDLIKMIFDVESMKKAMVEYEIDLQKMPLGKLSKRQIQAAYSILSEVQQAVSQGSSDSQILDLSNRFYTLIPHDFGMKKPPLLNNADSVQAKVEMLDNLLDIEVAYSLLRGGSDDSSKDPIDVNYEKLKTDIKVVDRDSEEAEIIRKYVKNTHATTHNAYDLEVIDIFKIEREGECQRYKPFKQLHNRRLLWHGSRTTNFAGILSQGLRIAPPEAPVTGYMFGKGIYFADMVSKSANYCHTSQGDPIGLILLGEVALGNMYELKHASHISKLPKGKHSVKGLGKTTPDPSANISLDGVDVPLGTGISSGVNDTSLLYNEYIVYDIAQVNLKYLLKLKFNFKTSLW
A further data set deals with V79. Briefly: Cytotoxicity against BRCA2 expressing Chinese hamster V79 cells after 3 days by CCK8 or SRB assay. Format: cell-based. The following applies: Cricetulus griseus, V79, 72 h. A general note: Tetrazolium dyes change colour on reduction, which living cells bring about.
A short description of data set [2]: Cytotoxicity against BRCA2 deficient Chinese hamster VC8 cells after 3 days by CCK8 or SRB assay. Format: functional, cell-based. To be noted: Cricetulus griseus, V-C8, 72 h.
In another data set the test system is MDA-MB-436. Briefly: Antiproliferative activity against human MDA-MB-436 cells after 7 days by CCK8 or SRB assay. To be noted: MDA-MB-436, 168 h. Format: functional, cell-based.
Data set [3] in a line: Drug level in mouse liver microsomes treated with 2-(4-(2,3-Difluoro-5-((4-oxo-3,4-dihydrophthalazin-1-yl)methyl)benzoyl)pipe-razin-1-yl)nicotinonitrile at 2 uM up to 60 mins by LC-MS/MS analysis. Format: ADME, microsome. To be noted: 1 h. On the technique in general: Microsomes from liver hold many membrane-bound enzymes, among them those of drug oxidation.
A short description of data set [4]: Retention time in mouse liver microsomes at 2 uM up to 60 mins in presence of NADPH by LC-MS/MS analysis. The data set is classed as ADME, microsome. To be noted: 1 h.
Data set [5] is described as follows: Solubility of the compound in water after 24 hrs by HPLC analysis. The data set is classed as physicochemical.

For orientation: IC50 means the point on the concentration scale where inhibition reaches its midpoint. On to `COc1ccccc1N1CCN(C(=O)c2cc(Cc3n[nH]c(=O)c4ccccc34)cc(F)c2F)CC1`, for which half-maximal inhibition in data set [1] (IC50) was put at 297 nM.

For `O=C(c1cc(Cc2n[nH]c(=O)c3ccccc23)cc(F)c1F)N1CCN(c2ccc(Cl)cc2)CC1`, it took 103 nM to reach half-maximal inhibition in data set [1] (IC50).

Regarding `O=C(c1cc(Cc2n[nH]c(=O)c3ccccc23)cc(F)c1F)N1CCN(c2ccc([N+](=O)[O-])cc2)CC1`, the IC50 in the data set with V79 is more than 10000 nM; in data set [2], 206 nM; with MDA-MB-436, 9.4 nM; in data set [1] it was 0.4 nM.

Consider `O=C(c1cc(Cc2n[nH]c(=O)c3ccccc23)cc(F)c1F)N1CCN(c2nsc3ccccc23)CC1`, for which the IC50 in data set [1] amounted to 52.2 nM.

On to `O=C(c1cc(Cc2n[nH]c(=O)c3ccccc23)cc(F)c1F)N1CCN(c2ccc(F)cc2)CC1`, for which the IC50 was 2850 nM with V79, 90.1 nM in data set [2], 10.8 nM in the data set on MDA-MB-436 and 0.4 nM in data set [1].

On to `O=C(c1cc(Cc2n[nH]c(=O)c3ccccc23)cc(F)c1F)N1CCN(Cc2ccccc2)CC1`, for which the IC50 in data set [1] turned out to be 96.8 nM.

As to `O=C(c1ccccc1)N1CCN(C(=O)c2cc(Cc3n[nH]c(=O)c4ccccc34)cc(F)c2F)CC1`, the IC50 in data set [1] stood at 6.1 nM.

For the molecule `O=C(c1cc(Cc2n[nH]c(=O)c3ccccc23)cc(F)c1F)N1CCN(c2ccccc2F)CC1`, the midpoint of inhibition in data set [1], the IC50, lay at 55.8 nM.

Regarding `O=C(c1cc(Cc2n[nH]c(=O)c3ccccc23)cc(F)c1F)N1CCN(c2ncc(Br)cn2)CC1`, 175 nM corresponded to half-maximal inhibition in data set [1] (IC50).

For `O=C(c1cc(Cc2n[nH]c(=O)c3ccccc23)cc(F)c1F)N1CCN(c2cccc(C(F)(F)F)c2)CC1`, the half-maximal inhibitory concentration (IC50) in the data set on V79 is more than 10000 nM; in data set [2], 624 nM; with MDA-MB-436, 23.4 nM; in data set [1] it was 0.8 nM.

On to `O=C(c1cc(Cc2n[nH]c(=O)c3ccccc23)cc(F)c1F)N1CCN(c2ccccc2)CC1`, for which the IC50 was determined as 6030 nM in the data set on V79, 1940 nM in data set [2], 82.4 nM in the data set with MDA-MB-436 and 0.5 nM in data set [1].

Regarding `O=C(c1cc(Cc2n[nH]c(=O)c3ccccc23)cc(F)c1F)N1CCN(c2ccccc2O)CC1`, the IC50 was 7830 nM with V79, 31.7 nM in data set [2], 0.3 nM in the data set with MDA-MB-436 and 0.9 nM in data set [1].

Turning to `N#Cc1cccnc1NCCN(CC(=O)O)C(=O)c1cc(Cc2n[nH]c(=O)c3ccccc23)cc(F)c1F`, in data set [3], the Drug uptake entry is given as “Active”. The Retention_time in data set [4] is 6.7 min.

`CCN1CCN(C(=O)c2cc(Cc3n[nH]c(=O)c4ccccc34)cc(F)c2F)CC1`: the IC50 in the data set on V79 was more than 10000 nM; in data set [2], 987 nM; in the data set on MDA-MB-436, 12.9 nM; in data set [1], 1.4 nM.

With `O=C(c1cc(Cc2n[nH]c(=O)c3ccccc23)cc(F)c1F)N1CCN(c2nccc(Br)n2)CC1`, the midpoint of inhibition in data set [1], the IC50, lay at 110 nM.

As for `N#Cc1ccc(N2CCN(C(=O)c3cc(Cc4n[nH]c(=O)c5ccccc45)cc(F)c3F)CC2)cc1`, in data set [1], the IC50 was 5.4 nM.

As to `O=C(c1cc(Cc2n[nH]c(=O)c3ccccc23)cc(F)c1F)N1CCN(c2ncccn2)CC1`, the IC50 in data set [1] is 2.9 nM.

In turn, `O=C(c1cc(Cc2n[nH]c(=O)c3ccccc23)cc(F)c1F)N1CCN(c2ncc(C(F)(F)F)cn2)CC1` displayed a 50% inhibitory concentration (IC50) in data set [1] of 70.5 nM.

For `O=C(c1cc(Cc2n[nH]c(=O)c3ccccc23)cc(F)c1F)N1CCN(c2ccccn2)CC1`, the IC50 is 924 nM in the data set with V79, less than 3.2 nM in data set [2], less than 0.03 nM in the data set on MDA-MB-436 and 0.1 nM in data set [1].

Turning to `O=C(c1cc(Cc2n[nH]c(=O)c3ccccc23)cc(F)c1F)N1CCN(Cc2cccnc2)CC1`, in data set [1], the IC50 was determined as 157 nM.

Usually solubility stands for the concentration that dissolves in the medium under given conditions. With `N#Cc1ccccc1N1CCN(C(=O)c2cc(Cc3n[nH]c(=O)c4ccccc34)cc(F)c2F)CC1`, the IC50 is 4340 nM in the data set on V79, 8.8 nM in data set [2], less than 0.05 nM in the data set with MDA-MB-436 and 0.02 nM in data set [1]. Moreover, the solubility at 24 h in data set [5] is less than 0.2 µg/mL.

As for `O=C(c1cc(Cc2n[nH]c(=O)c3ccccc23)cc(F)c1F)N1CCN(C2CCCCCC2)CC1`, the IC50 in the data set on V79 is more than 10000 nM; in data set [2] it was 42.6 nM; in the data set with MDA-MB-436, 6 nM; in data set [1], 0.8 nM.

Take `O=C(c1cc(Cc2n[nH]c(=O)c3ccccc23)cc(F)c1F)N1CCN(c2cccc(Cl)c2)CC1`: the IC50 in the data set with V79 came to 7880 nM; in data set [2], 1600 nM; in the data set on MDA-MB-436, 396 nM; in data set [1], 4.2 nM.

`N#Cc1cccc(N2CCN(C(=O)c3cc(Cc4n[nH]c(=O)c5ccccc45)cc(F)c3F)CC2)n1` came in with an IC50 in data set [1] of 5.1 nM.

Turning to `N#Cc1cccnc1NCCN(CCO)C(=O)c1cc(Cc2n[nH]c(=O)c3ccccc23)cc(F)c1F`, in data set [3], the Drug uptake entry is reported as “Active”. The Retention_time in data set [4] was 6.2 min.

For the molecule `COc1ccc(N2CCN(C(=O)c3cc(Cc4n[nH]c(=O)c5ccccc45)cc(F)c3F)CC2)cc1`, 112 nM corresponded to half-maximal inhibition in data set [1] (IC50).

As to `O=C(c1cc(Cc2n[nH]c(=O)c3ccccc23)cc(F)c1F)N1CCN(c2nccs2)CC1`, the 50% inhibitory concentration (IC50) with V79 is more than 10000 nM; in data set [2] it was 137 nM; in the data set on MDA-MB-436 it was 6.3 nM; in data set [1], 0.2 nM.

`O=C(c1cc(Cc2n[nH]c(=O)c3ccccc23)cc(F)c1F)N1CCN(C(=O)N2CCOCC2)CC1`: the IC50 with V79 is more than 10000 nM; in data set [2] it was 938 nM; in the data set on MDA-MB-436, 25.7 nM; in data set [1], 2.3 nM.

For `O=C(c1cc(Cc2n[nH]c(=O)c3ccccc23)cc(F)c1F)N1CCN(C(=O)C2CCCO2)CC1` (stereo not drawn), the IC50 with V79 is more than 10000 nM; in data set [2] it was 68.1 nM; with MDA-MB-436 it was 4.9 nM; in data set [1], 2.4 nM.

In the case of `Cc1ccc(Cl)cc1N1CCN(C(=O)c2cc(Cc3n[nH]c(=O)c4ccccc34)cc(F)c2F)CC1`, in data set [1], the IC50 was 324 nM.

Regarding `O=C(c1cc(Cc2n[nH]c(=O)c3ccccc23)cc(F)c1F)N1CCN(c2ccncc2)CC1`, the IC50 in the data set on V79 was more than 10000 nM; in data set [2], 3290 nM; with MDA-MB-436, 3.7 nM; in data set [1], 0.9 nM.

In the case of `Cc1ccc(N2CCN(C(=O)c3cc(Cc4n[nH]c(=O)c5ccccc45)cc(F)c3F)CC2)cc1`, the IC50 in the data set with V79 is more than 10000 nM; in data set [2] it was 2080 nM; in the data set on MDA-MB-436, 405 nM; in data set [1], less than 0.1 nM.

Take `O=C(c1cc(Cc2n[nH]c(=O)c3ccccc23)cc(F)c1F)N1CCN(c2ccc(O)cc2)CC1`: the IC50 with V79 was more than 10000 nM; in data set [2] it was 3970 nM; with MDA-MB-436, 27.1 nM; in data set [1], 0.6 nM.

`Cc1ccc(C(=O)N2CCN(C(=O)c3cc(Cc4n[nH]c(=O)c5ccccc45)cc(F)c3F)CC2)cc1` displayed an IC50 in data set [1] of 29.1 nM.

As to `O=C(c1cc(Cc2n[nH]c(=O)c3ccccc23)cc(F)c1F)N1CCN(C2CCCCC2)CC1`, in data set [1], half-maximal inhibition (IC50) required 3.5 nM.

In data set [1], `CC(=O)N1CCN(C(=O)c2cc(Cc3n[nH]c(=O)c4ccccc34)cc(F)c2F)CC1` yielded an IC50 of 7.1 nM.

Regarding `O=C(c1cc(Cc2n[nH]c(=O)c3ccccc23)cc(F)c1F)N1CCN(c2ccc(Br)cc2)CC1`, in data set [1], the IC50 is 83.4 nM.

`O=C(c1cc(Cc2n[nH]c(=O)c3ccccc23)cc(F)c1F)N1CCN(C(=O)C2CC2)CC1` yielded an IC50 in data set [1] of 11.2 nM.

As to `O=C(c1cc(Cc2n[nH]c(=O)c3ccccc23)cc(F)c1F)N1CCN(C2CCCC2)CC1`, the half-inhibitory concentration (IC50) in the data set with V79 was more than 10000 nM; in data set [2], 284 nM; with MDA-MB-436, 10.6 nM; in data set [1], 2.6 nM.

As to `O=C(c1cc(Cc2n[nH]c(=O)c3ccccc23)cc(F)c1F)N1CCN(CC2CC2)CC1`, inhibition in data set [1] was half-maximal at 9.7 nM (IC50).

Take `CCCCN1CCN(C(=O)c2cc(Cc3n[nH]c(=O)c4ccccc34)cc(F)c2F)CC1`: the IC50 with V79 is 771 nM; in data set [2], 149 nM; with MDA-MB-436 it was less than 0.03 nM; in data set [1], 2.1 nM.
